Series [1] is described as follows: Cytotoxicity in BALB/c mouse BMDM cells after 72 hrs by Alamar Blue assay. Format: cell-based. Particulars: bone marrow-derived macrophages (BMDM cells), read-out: LD50.
In series [2] the target is T1, Glycylpeptide N-tetradecanoyltransferase (Plasmodium falciparum (isolate 3D7), UniProt Q8ILW6).
T1 sequence (Q8ILW6 whole entry): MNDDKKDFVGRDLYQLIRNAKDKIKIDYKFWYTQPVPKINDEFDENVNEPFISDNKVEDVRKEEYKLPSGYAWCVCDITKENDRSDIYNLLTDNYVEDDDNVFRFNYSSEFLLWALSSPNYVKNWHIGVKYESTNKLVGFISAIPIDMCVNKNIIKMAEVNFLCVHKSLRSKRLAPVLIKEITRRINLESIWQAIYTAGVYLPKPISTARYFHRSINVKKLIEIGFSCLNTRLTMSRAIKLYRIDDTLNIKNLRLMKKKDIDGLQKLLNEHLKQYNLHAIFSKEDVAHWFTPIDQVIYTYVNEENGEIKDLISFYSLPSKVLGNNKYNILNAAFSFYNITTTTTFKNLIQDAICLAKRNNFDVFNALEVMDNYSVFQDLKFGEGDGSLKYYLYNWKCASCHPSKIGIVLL
In words: Binding affinity to Plasmodium falciparum N-myristoyltransferase by fluorescence analysis.

The record followed here is ChEMBL document CHEMBL3769347, “Discovery of high affinity inhibitors of Leishmania donovani N-myristoyltransferase” (Medchemcomm, 2015).

On to `COc1cccc(Cc2noc(-c3ccc(F)cc3OC3CCNCC3)n2)c1`, for which, in series [1], the CC50 at 72 h came out at 29.5 µM.

Turning to `Cc1nn(C)c(C)c1Cc1nnc(-c2cc(Cl)ccc2OC2CCNCC2)o1`, in series [1], the CC50 at 72 h is above 90 µM.

As for `COc1cccc(Cc2noc(-c3cc(Cl)ccc3OC3CCNCC3)n2)c1`, in series [1], the CC50 at 72 h is 18 µM.

In series [2], `COc1cccc(COC(=O)c2sccc2OC2CCNCC2)c1` yielded a Ki above 100 µM.

`COc1cccc(Cc2noc(-c3cc(OC)ccc3OC3CCNCC3)n2)c1`: in series [1], the CC50 at 72 h stood at 27.9 µM.
